# Key:
# [1] = system: HERV-W related transcripts (env and pol mRNA); test: HERV-W related transcripts levels by RT-qPCR in PBMC of MS patients treated with GNbAC1 (GNC002 Phase IIa trial); assay type: in vivo, human; settings: for all HERV-W transcript levels compared to basal values at inclusion: at the 6th monthly GNbAC1 administration, relative expression to GUS B
# Method: The present GNC002 Phase IIa clinical trial was performed to assess the safety profile and the pharmacokinetics of GNbAC1 at 2 and 6 mg/kg in 10 MS patients. GNC002 consisted in a 12 months longitudinal study, in which GNbAC1 is administered on a monthly basis.
# The present analysis was conducted on samples collected during the first 6 months of GNC002, where HERV-W related transcripts levels were assessed by real time quantitative polymerase chain reaction (RT-qPCR) in peripheral blood mononuclear cells (PBMC) of enrolled patients. HERV-W transcripts are assessed by different primers/probe sets as follows: MSRV-env, HERV-W-UNO, HERV-W-UNO2,
# Briefly, the first step consisted in the extraction of total RNA from PBMC samples. Samples were PBMC isolated from blood collected on CPT tubes and frozen in 0.5 ml of DMSO 10% in Foetal Calf Serum. After thawing, PBMC samples were washed with ice-cold PBS and total RNAs were extracted with QIAamp RNeasy Mini Kit. Then, cDNAs were prepared by retro-transcribing all mRNA contained in previously extracted total RNAs. Quantitative PCRs were conducted on these cDNAs, with addition of an internal standard used as an inter-plate calibrator (allowing the standardization of the values throughout an experiment with multiple plates). Results were expressed as the relative expression of the targeted RNA (MSRV/HERV-W), by a ratio to the expression of GUS B RNA, a reference housekeeping gene with a stable expression level in MS population.
# The Relative Expression of each targeted RNA within each sample is calculated as follows: Targeted RNA Relative Expression to GUS B=2^(Cq GUS B-Cq targeted RNA) Extraction Yields and Samples Exclusion
# For each patient included in the study, PBMCs were isolated from blood sample at Day 1 (inclusion), Day 2, Day 8, Day 15, and Day 29. Afterwards, patients have received 5 additional monthly GNbAC1 administrations and PBMCs were isolated from blood sample before each infusion of antibody. Thus, the following results represent the variation of each HERV-W related transcript over the first 6 months of GNC002 study.
# The second GNbAC1 administration occurred at different time points from Day 1, depending on patients. Thus, the mean variation of HERV-W related transcripts was assessed with blood samples collected before each GNbAC1 administration only.
# [2] = system: HERV-W Reverse-transcriptase (RT); test: Western blot of HERV-W pol-encoded Reverse-Transcriptase protein in CH1/CH2 cell cultures treated with GNbAC1 and/or AZT; assay type: cell-based, Human; settings: CH1 and CH2 co-culture; AZT 1 μg/ml, GNbAC1 300 μg/ml; versus mock-treated cells
# Method: Human CH1 and CH2 cells (1:1) cells were co-cultured for optimizing the growth of CH2 cells and maintained in 6-well plates (CC7672-7506; CytoOne) at a density of 1.10^6 cell/well in IMDM medium (Ser. No. 12/440,053; Lifetech) supplemented with 10% fetal calf serum (Ser. No. 10/270,106; Invitrogen), 1% penicillin/streptomycin (P4333; Sigma) at 37° C. with 5% CO2. Cells were treated with i) AZT (1 μg/ml, A21-69; Sigma), ii) GNbAC1 (300 μg/ml, T950111-A; Polymun), iii) AZT+GNbAC1 or corresponding controls with GNbAC1 buffer [20 mM His, 5% Sucrose (w/v), 0.01% Tween 20 (w/v)].
# CH1 and CH2 cells were resuspended in 200 μl of RIPA buffer (R0278, SIGMA) containing cOmplete® anti-phosphatase inhibitor cocktail (04 693 132001; Roche) and 0.05% LPG (326495-22-1; Avanti Polar) at 4° C., incubated for 2 hours at 26° C. on a rotating platform and centrifuged at 10000 g for 20 minutes at 26° C. Supernatant were collected and stored at −20° C.
# Protein extracts were diluted (2:1) in 2× Laemmli buffer (Biorad) and heated for 5 minutes at 100° C. before loading. Proteins were separated by 7.5% sodium dodecyl sulfate-polyacrylamide gel electrophoresis (TGX, Biorad). Gels were run for a time period of 15 min at 120 mA in running buffer (Life Technologies). […] Protein of interest was detected with a colometric reaction (Opti 4-CN, Biorad), according to the provided protocol. […]
# [3] = healthy volunteers, Phase 1
substance,measurement,setting,value
"GNbAC1: humanized IgG4 monoclonal antibody directed against HERV-W/MSRV Envelope protein; heavy chain SEQ ID No: 9, light chain SEQ ID No: 10",all HERV-W transcript levels compared to basal values at inclusion,"[1]; 2 mg/kg cohort, PBMC",decrease
same,all HERV-W transcript levels compared to basal values at inclusion,"[1]; 6 mg/kg cohort, PBMC",confirmed
same,env mRNA and pol mRNA levels compared to levels before treatment,[1]; after three and six months of treatment,parallel and progressive decrease
same,HERV-W pol mRNA level,"[1]; injected once a month over six months, PBMC, pol qPCR protocol",decrease is also marked
same,HERV-W RT protein expression (Western blot signal),[2],minor effects
same,pharmacokinetics,[3],linear
same,safety profile,[3],favorable

# Reference: patent US10894820B2, “Antiretroviral drug targeting human endogenous retrovirus” (priority 2014, dated 2021)
